Measurements taken from patent US4937346A, “Phenyl-azacykloalkanes” (Carlsson; Per Arvid Emil, priority 1979, dated 1990).
“Also recorded” adds a separate entry of the source. Read-outs that look alike come from different tables or passages of the source.

Experiments:
[1] = tested on: postsynaptic dopaminergic receptors; experiment: Locomotor activity in reserpine-treated rats, enantiomers of 3-PPP; assay type: in vivo, rat; settings: for stimulation of locomotor activity: reserpine-treated rats, (+)-form 0.25 to 64 mg/kg
Excerpt: 2. Evidence for postsynaptic dopaminergic receptor agonist activity of (+)-3-PPP.

[2] = tested on: dopaminergic receptors (presynaptic and postsynaptic); experiment: Dopaminergic receptor profile of 3-PPP and its enantiomers (summary of tests); assay type: in vivo; settings: summary of enantiomer tests
Excerpt: The two enantiomers of 3-PPP have now been tested separately.

[3] = tested on: presynaptic dopaminergic receptor (autoreceptor); experiment: Spontaneous exploratory motor activity of rats, enantiomers of 3-PPP; assay type: in vivo, rat; settings: for decrease of locomotor activity to % of control: s.c., first 30 min
Description: 1. Evidence for presynaptic dopaminergic receptor (autoreceptor) agonist activity of both enantiomers of 3-PPP. Both enantiomers of 3-PPP cause a dose-dependent decrease in spontaneous exploratory motor activity of rats. […] However, the (+)-enantiomer causes a decrease only after doses between 0.25 and 4 mg/kg s.c.

dopa formation = experiment: Dopa formation and dopamine metabolite levels in rats not pretreated with GBL or reserpine; assay type: in vivo, rat; settings: for levels of 3,4-dihydroxyphenyl acetic acid and homovanillic acid: matched to the changes in dopa formation
[4] = tested on: postsynaptic dopaminergic receptor; experiment: Antagonism of apomorphine-induced locomotor stimulation; assay type: in vivo, rat
Description: 3. Evidence for postsynaptic dopminergic receptor antagonist activity of (-)-3-PPP.
The locomotor stimulating action of the dopamine receptor aqonist apomorphine is antagonized by (-)-3-PPP. […] Thus the postsynaptic receptor antagonist activity requires a larger dose than the presynaptic receptor agonist activity, which is evident after doses down to 0.25 mg/kg.
Further, (-)-3-PPP and racemic 3-PPP have been compared regarding antagonism of apomorphine-induced locomotor stimulation. Either form of 3-PPP was injected subcutaneously in a dose of 8 mg/kg 20 min and apomorphine in a dose of 1 mg/kg subcutaneously 5 min before placing the rats in the Motron for 30 min. Shown are the counts per 30 min., means± s.e.m. and number of experiments (n).

[5] = tested on: presynaptic dopaminergic receptors and postsynaptic dopaminergic receptors; experiment: Antagonism of the locomotor stimulating activity of (+)-amphetamine; settings: in vivo
Excerpt: This effect is probably the result of the simultaneous stimulation of presynaptic dopaminergic receptors and partial blockade of postsynaptic dopaminergic receptors. All the major antipsychotic agents in current use are potent amphetamine antagonists, and such activity is considered to be predictive of antipsychotic action.

[6] = tested on: rat brain tyrosine hydroxylation; experiment: In-vivo determination of rat brain tyrosine hydroxylation (Dopa formation after NSD 1015, reserpine-pretreated rats); settings: sc, reserpine-pretreated rats, Dopa level
Description: 2. In-vivo determination of rat brain tyrosine hydroxylation.
The compounds under evaluation were tested biochemically for central DA-receptor (pre- and/or postsynaptic) stimulating activity. The concept of this biochemical screening method is that a DA-receptor agonist will stimulate the receptor and through regulatory feedback systems effect a decline in tyrosine hydroxylase activity and thus a subsequent reduction in the synthesis rate for DA in the presynaptic neuron. Dopa formation, as determined after in-vivo inhibition of the aromatic L-amino acid decarboxylase with NSD 1015 (3-hydroxybenzyl-hydrazine hydrochloride), is taken as an indirect measure of DA synthesis rate.
Rats (150-300 g) pretreated with reserpine were given the compounds under evaluation. Gross behavioral observations (changes in motility, stereotypies etc.) were made in order to evaluate possible postsynaptic dopamine receptor activity. Subsequent administration of NSD 1015, decapitation, brain dissection (corpora striate and the limbic fore-brain), homogenization, centrifugation, ion-exchange chromatography and spectrofluorimetric measurements (all as described in detail by Wikstrom et al., in J. Med. Chem. 21, 864-867, 1978, and references cited therein), gave the actual Dopa levels. Several doses (n=4-6) were tested in order to obtain dose-response curves for each compound and brain area. The dose of a compound producing a half-maximal decrease in the Dopa level in the rat brain part was then estimated.

[7] = tested on: central postsynaptic DA-receptor; experiment: Locomotor activity in reserpine-pretreated rats, comparison of compound 4 with two known dopaminergic agonists; assay type: in vivo, rat; settings: for Motor activity: 0-60 min postinj.; for central postsynaptic DA-receptor stimulation / motor response: s.c.
Description: Rats (150-300 g) pretreated with reserpine (10 mg/ kg i.p., 6 h before) were given either phys. saline, compound 4 (100 μmol/kg), N-n-propyl-3-(3,4-dihydroxyphenyl)piperidine (100 μmol/kg) or apomorphine ([…]) subcutaneously and the locomotor activity (accumulated counts 0-60 min.) was quantified by means of Motron boxes (see under 4 above).

[8] = tested on: postsynaptic DA receptors; experiment: Antagonism of the reserpine-induced "neuroleptic syndrome" in the rat; assay type: in vivo; settings: 20 mg/kg s.c.
Excerpt: 1. Antagonism of the reserpine-induced "neuroleptic syndrome" in the rat
Depletion of the monoamine stores with reserpine brings about a "neuroleptic syndrome" characterized by hypomotility, catalepsy, muscle rigidity, hunch-backed posture as well as a number of other central and peripheral signs of monoamine depletion. This syndrome can be reversed by the administration of drugs that stimulate postsynaptic DA receptors directly or indirectly, e.g. apomorphine, L-Dopa.
Rats (150-300 g) pretreated with reserpine (10 mg/kg i.p., 6 h before) were given compound 4 subcutaneously at different doses.

DA autoreceptors = experiment: Effect on spontaneous locomotor activity in the rat; assay type: in vivo; settings: 0-15 min; haloperidol 0.02 mg/kg i.p. 25 min before + saline, n=5
Excerpt: 4. Effect on spontaneous locomotor activity in the rat.
Untreated animals exposed to a new environment display an initial high motor activity which then gradually declines over a period of time. Administration of DA-receptor agonists (e.g. apomorphine) in doses where preferential autoreceptor stimulation is likely to occur, causes a depression of the spontaneous motility mentioned above, considered to be due to the DA autoreceptor-mediated impairment of central DA transmission.
Rats (150-300 g) were injected subcutaneously with several doses of compounds 4 and after 5 minutes they were individually placed in motility boxes ("M/P 40 Fc Electronic Motility Meter". Motron Products, Stockholm) and the motor activity (0-30 min.) was quantified. […] Moreover, there seems to be a correlation between the decrease in spontaneous locomotion and the degree of antagonism of the GBL-induced increase in DA synthesis (cf. 3 above) in the limbic areas of rat brain exerted by compound 4, the per cent decrease of motor activity being roughly 0.6 times the per cent reversal of GBL-induced increase in DA-synthesis rate.

[9] = striatum, read-out: ED50 Striatum

CCCN1CCCC(c2cccc(O)c2)C1 (single isomer, unassigned; (+)) [(+)-3-PPP, reference compound]
effect of haloperidol on locomotor stimulation ([1]; haloperidol): blocked by haloperidol | stimulation of locomotor activity [1]: marked stimulation of locomotor activity | activity on presynaptic and postsynaptic dopaminergic receptors [2]: dopaminergic receptor agonist by activating both the presynaptic and the postsynaptic receptors | effect on locomotor activity ([3]; 8 mg/kg s.c.): no effect | increase of locomotor activity to % of control ([3]; 64 mg/kg s.c.): more than 200 % of control | decrease of locomotor activity to % of control [3]: 30-40 % of control | dopa formation (dopa formation; 0.053 to 64 mg/kg, no pretreatment): decrease | levels of 3,4-dihydroxyphenyl acetic acid and homovanillic acid (dopa formation): corresponding changes in the levels of the dopamine metabolites

CCCN1CCCC(c2cccc(O)c2)C1.Cl (single isomer, unassigned; (-)) [(-)-3-PPP, (-)-3-(3-Hydroxyphenyl)-N-n-propylpiperidine hydrochloride]
stimulation of locomotor activity [1]: only a very weak stimulation of motor activity | activity on presynaptic and postsynaptic dopaminergic receptors [2]: capable of activating the presynaptic dopaminergic receptors (autoreceptors) but concomitantly reduced the sensitivity of the postsynaptic dopaminergic receptors to dopaminergic agonists | effect on locomotor activity over dose range ([3]; doses between 0.053 and 64 mg/kg s.c.): a decrease after all these doses, with no reversal of the effect after larger doses | doses down to which presynaptic receptor agonist activity is evident ([3]; presynaptic receptor agonist activity): 0.25 mg/kg | decrease of locomotor activity to % of control [3]: 30-40 % of control | dopa formation, limbic region (dopa formation; 0.053 to 64 mg/kg, no pretreatment, limbic region): no change | dopa formation, striatum (dopa formation; 0.053 to 64 mg/kg, no pretreatment, striatum): increase | levels of 3,4-dihydroxyphenyl acetic acid and homovanillic acid (dopa formation): corresponding changes in the levels of the dopamine metabolites | dopa formation and dopamine metabolite levels in rat striatum (dopa formation; rat striatum): stimulate dopa formation and to raise dopaminemetabolite levels in rat striatum | antagonism of apomorphine locomotor stimulation ([4]; 2 mg/kg): not after 2 mg/kg | counts per 30 min., with apomorphine ([4]; 8 mg/kg s.c. + apomorphine 1 mg/kg s.c., means ± s.e.m., n=5): 276 ± 50 counts per 30 min. | antagonism of apomorphine locomotor stimulation ([4]; 8 mg/kg s.c., hydrochloride): clearcut; also recorded: antagonized said stimulation | antagonism of (+)-amphetamine locomotor stimulating activity [5]: striking antagonistic action

CN1CCc2cccc3c2[C@H]1Cc1ccc(O)c(O)c1-3 [Apomorphine, reference compound]
ED50 ([6]; limbic, read-out: ED50 Limbic): 0.19 µmol/kg | ED50 [6, 9]: 0.22 µmol/kg | Motor activity ([7]; 2 μmol/kg s.c.): 624 ± 51 acc. counts | central postsynaptic DA-receptor stimulation / motor response [7]: strong central postsynaptic DA-receptor stimulatory effects | counts per 30 min., apomorphine alone ([4]; apomorphine 1 mg/kg s.c., means ± s.e.m., n=10): 513 ± 35 counts per 30 min.

CC(C)N1CCCC(c2cccc(O)c2)C1 (stereo not shown) [Compound 7, N-isopropyl-3-(3-hydroxphenyl)piperidine]
antagonism of the reserpine-induced syndrome [8]: No antagonism of the reserpine-induced syndrome was seen | ED50 ([6]; limbic, read-out: ED50 Limbic): 0.8 µmol/kg | ED50 [6, 9]: 0.7 µmol/kg

O=C(CCCN1CCC(O)(c2ccc(Cl)cc2)CC1)c1ccc(F)cc1 [Haloperidol, reference compound]
Motor activity (DA autoreceptors): 140 ± 22 acc. counts

CCCN1CCCC(c2ccc(O)c(O)c2)C1 (stereo not shown) [N-n-propyl-3-(3,4-dihydroxyphenyl)piperidine, reference compound]
ED50 ([6]; limbic, read-out: ED50 Limbic): 9.4 µmol/kg | ED50 [6, 9]: 10 µmol/kg | Motor activity ([7]; 100 μmol/kg s.c.): 522 ± 83 acc. counts | central postsynaptic DA-receptor stimulation / motor response [7]: strong central postsynaptic DA-receptor stimulatory effects
